Columns and labels:
[1] = test system: ZEAMX; test: Post-emergence herbicidal effect and crop plant compatibility, greenhouse pot test; format: in vivo, Zea mays; conditions: one-leaf stage, rated visually after about 3 weeks vs untreated controls
How it was run: (§1)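 Greenhouse pot plants in sandy loam receive a one-leaf-stage spray at 20 to 320 g/ha. Activity is assessed visually around 3 weeks afterwards on a 0–100% scale, where 100% means the plants have died.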

[2] = test system: ORYSA; test: as above; format: in vivo, Oryza sativa; conditions: 20 g/ha, visual rating about 3 weeks after treatment, crop plant
From the text: • ALOMY: Alopecurus myosuroides SETVI: Setaria viridis • AVEFA: Avena fatua POLCO: Fallopia convolvulus • AMARE: Amaranthus retroflexus ECHCG: Echinochloa crus-galli • LOLRJ: Lolium rigidum STEME: Stellaria media • VERPE: Veronica persica MATIN: Tripleurospermum inodorum • DIGSA: Digitaria sanguinalis ABUTH: Abutylon threophrasti • TRZAS: Triticum aestivum VIOTR: Viola tricolor • BRSNW: Brassica napus ZEAMX: Zea mays • PHBPU: Ipomoea purpurea GLXMA: Glycine max • ORYSA: Oryza sativa HORMU: Hordeum murinum
Seeds of monocotyledonous and dicotyledonous weeds and crop plants are placed in sandy loam in plastic or organic planting pots, covered with soil and cultivated in a greenhouse under controlled growth conditions. 2 to 3 weeks after sowing, the trial plants are treated at the one-leaf stage. The compounds of the invention, formulated in the form of wettable powders (WP) or as emulsion concentrates (EC), are then sprayed onto the green parts of the plants as aqueous suspension or emulsion with addition of 0.5% additive at a water application rate of 600 l/ha (converted). After the test plants have been kept in the greenhouse under optimum growth conditions for about 3 weeks, the activity of the preparations is rated visually in comparison to untreated controls. For example, 100% activity=the plants have died, 0% activity=like control plants.
Tables 20a to 38c below show the effects/crop compatibilities of selected compounds of the general formula (I) on various harmful plants at an application rate corresponding to 20 to 320 g/ha, which were obtained by the trial procedure specified above.

[3] = test system: ABUTH; test: Post-emergence herbicidal effect, greenhouse pot test; format: in vivo, Abutilon theophrasti; conditions: visual rating about 3 weeks after treatment
How it was run: as §1

[4] = test system: ALOMY; test: as above; format: in vivo, Alopecurus myosuroides; conditions: 320 g/ha, visual rating about 3 weeks after treatment
How it was run: as §1

[5] = test system: AMARE; test: as above; format: in vivo, Amaranthus retroflexus; conditions: visual rating about 3 weeks after treatment
How it was run: as §1

[6] = test system: AVEFA; test: as above; format: in vivo, Avena fatua; conditions: 320 g/ha, visual rating about 3 weeks after treatment
How it was run: as §1

[7] = test system: DIGSA; test: as above; format: in vivo, Digitaria sanguinalis; conditions: 320 g/ha, visual rating about 3 weeks after treatment
How it was run: as §1

[8] = test system: ECHCG; test: as above; format: in vivo, Echinochloa crus-galli
How it was run: as §1

[9] = test system: LOLRI; test: as above; format: in vivo, Lolium rigidum; conditions: 320 g/ha
How it was run: as §1

[10] = test system: MATIN; test: as above; format: in vivo, Tripleurospermum inodorum
How it was run: as §1

[11] = test system: PHBPU; test: as above; format: in vivo, Ipomoea purpurea
How it was run: as §1

[12] = test system: POLCO; test: as above; format: in vivo, Fallopia convolvulus
How it was run: as §1

[13] = test system: SETVI; test: as above; format: in vivo, Setaria viridis
How it was run: as §1

[14] = test system: VERPE; test: as above; format: in vivo, Veronica persica
How it was run: as §1

[15] = test system: VIOTR; test: as above; format: in vivo, Viola tricolor
How it was run: as §1

SMILES | Post-emergence effect at 20 g/ha against ZEAMX in % [1] [%] | Post-emergence effect against ORYSA [2] [%] | Post-emergence effect against ABUTH ([3]; 80 g/ha) [%] | Post-emergence effect against ABUTH ([3]; 320 g/ha) [%] | Post-emergence effect against ALOMY [4] [%] | Post-emergence effect against AMARE ([5]; 80 g/ha) [%] | Post-emergence effect against AMARE ([5]; 320 g/ha) [%] | Post-emergence effect against AVEFA [6] [%] | Post-emergence effect against DIGSA [7] [%] | Post-emergence effect against ECHCG in % ([8]; 80 g/ha) [%] | Post-emergence effect against ECHCG in % ([8]; 320 g/ha) [%] | Post-emergence effect against MATIN in % ([10]; 80 g/ha) [%] | Post-emergence effect against MATIN in % ([10]; 320 g/ha) [%] | Post-emergence effect against PHBPU in % ([11]; 80 g/ha) [%] | Post-emergence effect against PHBPU in % ([11]; 320 g/ha) [%] | Post-emergence effect against POLCO in % ([12]; 320 g/ha) [%] | Post-emergence effect against SETVI in % ([13]; 80 g/ha) [%] | Post-emergence effect against SETVI in % ([13]; 320 g/ha) [%] | Post-emergence effect against VERPE in % ([14]; 80 g/ha) [%] | Post-emergence effect against VERPE in % ([14]; 320 g/ha) [%] | also measured
COC(=O)C(C)COC(=O)C(OC)Oc1nn(-c2ccccc2F)c(-c2ccc(F)nc2)c1Br (racemic) [Example I-10] | 20 | 10 | 90 | 90 | 90 | 80 | 100 | 80 | 90 | 90 | 100 | 80 | 90 | 80 | 90 | 80 | 80 | 90 | 90 | 90 | Post-emergence effect against ABUTH ([3]; 20 g/ha): 80%; Post-emergence effect against AMARE ([5]; 20 g/ha): 80%; Post-emergence effect against ECHCG ([8]; 20 g/ha, visual rating about 3 weeks after treatment): 80%; Post-emergence effect against LOLRI in % [9]: 90%; Post-emergence effect against MATIN in % ([10]; 20 g/ha): 80%; Post-emergence effect against POLCO in % ([12]; 20 g/ha): 80%; Post-emergence effect against POLCO in % ([12]; 80 g/ha): 80%; Post-emergence effect against VIOTR in % ([15]; 80 g/ha): 80%; Post-emergence effect against VIOTR in % ([15]; 320 g/ha): 90%
COC(=O)CCOC(=O)C(OC)Oc1nn(-c2ccccc2F)c(-c2ccc(F)nc2)c1Br (single isomer, unassigned) [Example I-20] | 0 | 0 | 80 | 90 | 80 | 80 | 90 | 90 | 90 | 80 | 90 | 80 | 90 | 80 | 90 | 80 | 80 | 80 | 80 | 90 | Post-emergence effect at 80 g/ha against ZEAMX in % ([1]; 80 g/ha): 20%; Post-emergence effect against VIOTR in % ([15]; 80 g/ha): 80%; Post-emergence effect against VIOTR in % ([15]; 320 g/ha): 90%

Source: patent publication US20240391862A1, “(1,4,5-TRISUBSTITUTED-1H-PYRAZOL-3-YL)OXY-2-ALKOXY ALKYL ACIDS AND THEIR DERIVATIVES, THEIR SALTS AND THEIR USE AS HERBICIDAL AGENTS” (Bayer AKtiengesellschaft, priority 2021, published 2024)
